The values below come from patent US10857149B2, “Liquid formulations of salts of 1-[2-(2,4-dimethylphenylsulfanyl)phenyl]-piperazine” (H. Lundbeck A/S, priority 2009, dated 2020).

Entries after “also recorded” stand apart in the source; their conditions may differ. Where a name gives a salt, the structure may show the parent alone. Read-outs that look alike come from different tables or passages of the source.

A short description of series [1]: Room temperature (aqueous) solubility of salt forms. In kind it is physicochemical. As to conditions: for aqueous solubility: concentration equivalent to free base; for Solubility: lactate forms, Table 1; for pH at the solubility value: printed in the solubility cell.
The conditions of series [2]: room temperature, previously known salt forms, Table 2 (WO 2008/113359), cited from earlier work.
The nature of series [3]: Crystal form behaviour on exposure to water / aqueous slurry. In kind it is physicochemical. As to conditions: exposed to water / aqueous slurry.
The conditions of series [4]: depressed patients; cited from earlier work.
Series [5] relates to extracellular levels of serotonin, noradrenaline, dopamine and acetylcholine. As to conditions: rat brains; cited from earlier work.
Series [6] deals with serotonin transporter (Homo sapiens, UniProt P31645). As to conditions: cited from earlier work.
The target of series [7] is T1, 5-HT3 receptor (Homo sapiens, UniProt P46098).
T1 sequence (P46098 24-478): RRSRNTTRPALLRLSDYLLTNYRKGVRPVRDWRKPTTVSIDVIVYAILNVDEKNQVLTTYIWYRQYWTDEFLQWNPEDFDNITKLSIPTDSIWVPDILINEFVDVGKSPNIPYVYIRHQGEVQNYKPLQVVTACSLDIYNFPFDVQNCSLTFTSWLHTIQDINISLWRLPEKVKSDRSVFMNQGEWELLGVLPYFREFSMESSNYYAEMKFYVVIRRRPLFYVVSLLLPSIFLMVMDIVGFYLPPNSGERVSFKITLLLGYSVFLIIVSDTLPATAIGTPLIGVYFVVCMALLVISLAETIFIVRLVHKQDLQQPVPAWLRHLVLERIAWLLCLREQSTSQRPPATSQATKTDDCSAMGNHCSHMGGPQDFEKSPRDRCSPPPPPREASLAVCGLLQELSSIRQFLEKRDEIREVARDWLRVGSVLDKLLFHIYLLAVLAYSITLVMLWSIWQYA
Particulars: listed as compound I; cited from earlier work.

Chain of serotonin transporter (P31645 whole entry): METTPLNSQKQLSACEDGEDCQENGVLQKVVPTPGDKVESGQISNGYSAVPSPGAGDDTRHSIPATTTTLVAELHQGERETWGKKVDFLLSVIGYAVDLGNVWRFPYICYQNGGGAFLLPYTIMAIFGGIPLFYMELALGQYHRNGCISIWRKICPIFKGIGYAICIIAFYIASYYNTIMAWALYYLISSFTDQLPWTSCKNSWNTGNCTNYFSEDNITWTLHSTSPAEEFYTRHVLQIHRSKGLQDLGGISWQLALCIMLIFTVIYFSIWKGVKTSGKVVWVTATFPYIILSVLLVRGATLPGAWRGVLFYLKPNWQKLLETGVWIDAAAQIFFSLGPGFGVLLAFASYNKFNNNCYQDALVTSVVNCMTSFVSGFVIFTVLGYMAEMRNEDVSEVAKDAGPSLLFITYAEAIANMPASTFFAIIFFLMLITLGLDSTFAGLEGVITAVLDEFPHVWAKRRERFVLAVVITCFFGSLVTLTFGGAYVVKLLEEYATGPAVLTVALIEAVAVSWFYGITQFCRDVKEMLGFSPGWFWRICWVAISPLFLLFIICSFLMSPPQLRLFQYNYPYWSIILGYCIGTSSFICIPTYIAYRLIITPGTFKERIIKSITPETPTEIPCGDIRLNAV

Consider `C[C@H](O)C(=O)O.Cc1ccc(Sc2ccccc2N2CCNCC2)c(C)c1` [L-lactate MH2, 1-[2-(2,4-dimethyl-phenylsulfanyl)-phenyl] Piperazine, L-Lactate], for which the aqueous solubility in series [1] amounted to 26 mg/mL. Further, in series [1] (room temperature), the Solubility worked out at 26 mg base/mL and the “pH at the solubility value” was 5.2.

As to `Cc1ccc(Sc2ccccc2N2CCNCC2)c(C)c1` [HCl, MH, 1-[2-(2,4-dimethyl-phenylsulfanyl)-phenyl] piperazine], the Solubility in series [2] was 2.0 mg base/mL.

For the compound `Cc1ccc(Sc2ccccc2N2CCNCC2)c(C)c1` [Phosphate, 1-[2-(2,4-dimethyl-phenylsulfanyl)-phenyl] piperazine], in series [2], the Solubility was roughly 1 mg base/mL.

Regarding `Cc1ccc(Sc2ccccc2N2CCNCC2)c(C)c1` [L-(+)-tartrate, 1-[2-(2,4-dimethyl-phenylsulfanyl)-phenyl] piperazine], in series [2], the Solubility is reported as roughly 0.4 mg base/mL.

For the compound `CC(O)C(=O)O.Cc1ccc(Sc2ccccc2N2CCNCC2)c(C)c1` [DL-lactate MH, 1-[2-(2,4-dimethyl-phenylsulfanyl)-phenyl] Piperazine, DL-Lactate], in series [3], the “transformation of crystal form in water” value is recorded as “transformed into the beta form in aqueous slurry”.

In the case of `Cc1ccc(Sc2ccccc2N2CCNCC2)c(C)c1` [Sulphate, 1-[2-(2,4-dimethyl-phenylsulfanyl)-phenyl] piperazine], the Solubility in series [2] is roughly 0.1 mg base/mL.

In the case of `Br.Cc1ccc(Sc2ccccc2N2CCNCC2)c(C)c1` [HBr addition salt], the “level of sleep and sexually related adverse events” value in series [4] is “surprisingly low level”.

In the case of `C[C@H](O)C(=O)O.Cc1ccc(Sc2ccccc2N2CCNCC2)c(C)c1` [L-lactate AH1, 1-[2-(2,4-dimethyl-phenylsulfanyl)-phenyl] Piperazine, L-Lactate], the “transformation of crystal form in water” value in series [3] (listed as AH1) is reported as “transforms into monohydrate when exposed to water”.

Consider `Cc1ccc(Sc2ccccc2N2CCNCC2)c(C)c1` [Nitrate, 1-[2-(2,4-dimethyl-phenylsulfanyl)-phenyl] piperazine], for which the Solubility in series [2] was roughly 0.8 mg base/mL.

In the case of `Cc1ccc(Sc2ccccc2N2CCNCC2)c(C)c1` [HCl, 1-[2-(2,4-dimethyl-phenylsulfanyl)-phenyl] piperazine], the Solubility in series [2] is given as 3.0 mg base/mL.

Take `Cc1ccc(Sc2ccccc2N2CCNCC2)c(C)c1` [Maleate, 1-[2-(2,4-dimethyl-phenylsulfanyl)-phenyl] piperazine]: in series [2], the Solubility is roughly 1 mg base/mL.

In the case of `Cc1ccc(Sc2ccccc2N2CCNCC2)c(C)c1` [HBr, α-form, 1-[2-(2,4-dimethyl-phenylsulfanyl)-phenyl] piperazine], in series [2], the Solubility was 2.0 mg base/mL.

On to `Cc1ccc(Sc2ccccc2N2CCNCC2)c(C)c1` [Mesylate, 1-[2-(2,4-dimethyl-phenylsulfanyl)-phenyl] piperazine], for which the Solubility in series [2] was greater than 45 mg base/mL.

As to `Cc1ccc(Sc2ccccc2N2CCNCC2)c(C)c1` [Fumarate, 1-[2-(2,4-dimethyl-phenylsulfanyl)-phenyl] piperazine], the Solubility in series [2] is listed as 0.4 mg base/mL.

`Cc1ccc(Sc2ccccc2N2CCNCC2)c(C)c1` [Meso-tartrate, 1-[2-(2,4-dimethyl-phenylsulfanyl)-phenyl] piperazine]: the Solubility in series [2] was roughly 0.7 mg base/mL.

Consider `Cc1ccc(Sc2ccccc2N2CCNCC2)c(C)c1` [HBr, β-form, 1-[2-(2,4-dimethyl-phenylsulfanyl)-phenyl] piperazine], for which the Solubility in series [2] is on record as 1.2 mg base/mL.

As for `C[C@H](O)C(=O)O.Cc1ccc(Sc2ccccc2N2CCNCC2)c(C)c1` [L-lactate MH1, 1-[2-(2,4-dimethyl-phenylsulfanyl)-phenyl] Piperazine, L-Lactate], the “transformation of crystal form in water” value in series [3] (listed as MH1) is on record as “transforms into the MH2 in aqueous slurry”. For the same compound, in series [1] (room temperature, MH1 transforms into MH2 in aqueous slurry), the “Solubility, bound given for a form that could not be measured” value was “na (>26) mg base/mL”.

Consider `CC(O)C(=O)O.Cc1ccc(Sc2ccccc2N2CCNCC2)c(C)c1` [DL-lactate α, 1-[2-(2,4-dimethyl-phenylsulfanyl)-phenyl] piperazine, DL-Lactate], for which the “transformation of crystal form in water” value in series [3] (listed as α form) is “transformed into the β form in the aqueous slurry”.

For the compound `CC(O)C(=O)O.Cc1ccc(Sc2ccccc2N2CCNCC2)c(C)c1` [DL-lactate γ, 1-[2-(2,4-dimethyl-phenylsulfanyl)-phenyl] Piperazine, DL-Lactate], in series [3] (listed as γ form), the “transformation of crystal form in water” value is on record as “transforms into the beta form in aqueous slurry”.

As for `Cc1ccc(Sc2ccccc2N2CCNCC2)c(C)c1` [Compound I, 1-[2-(2,4-dimethylphenylsulfanyl)phenyl]piperazine], the Solubility in series [2] (listed as Crystalline base) is listed as 0.1 mg base/mL. For the same compound, the “extracellular levels of serotonin, noradrenaline, dopamine and acetylcholine” value in series [5] is recorded as “increase”. The “action at the serotonin transporter” value in series [6] is “inhibition”; in series [6] (listed as compound I), “inhibitor”. Moreover, in series [7], the “action at the 5-HT3 receptor” value is on record as “antagonist; also recorded: antagonism”.

Consider `CC(O)C(=O)O.Cc1ccc(Sc2ccccc2N2CCNCC2)c(C)c1` [DL-lactate β, 1-[2-(2,4-dimethyl-phenylsulfanyl)-phenyl] Piperazine, DL-Lactate], for which, in series [1], the aqueous solubility was determined as 8 mg/mL. Further, in series [1] (room temperature), the Solubility is on record as 8 mg base/mL and the “pH at the solubility value” is given as 6.

As to `Cc1ccc(Sc2ccccc2N2CCNCC2)c(C)c1` [D-(−)-tartrate, 1-[2-(2,4-dimethyl-phenylsulfanyl)-phenyl] piperazine], the Solubility in series [2] is on record as roughly 0.4 mg base/mL.
